Experimental data: ChEMBL document CHEMBL3751663, “Design and Synthesis of a Focused Library of Diamino Triazines as Potential Mycobacterium tuberculosis DHFR Inhibitors” (ACS Med Chem Lett, 2015)
Converted amounts (≈) assume the structure as drawn.

Experiments:
[1] = tested on: Mycobacterium tuberculosis; experiment: microbe, parasite or virus in culture; conditions: H37Rv, 48 h
Description: Antimycobacterium activity against Mycobacterium tuberculosis H37Rv after 48 hrs by Resazurin microtiter assay

[2] = tested on: Staphylococcus aureus; experiment: Antimicrobial activity against Staphylococcus aureus; assay type: functional
[3] = tested on: Escherichia coli; experiment: Antimicrobial activity against Escherichia coli; assay type: functional
[4] = tested on: A549; experiment: Cytotoxicity against human A549 cells; assay type: cell-based
[5] = tested on: HepG2; experiment: Cytotoxicity against human HepG2 cells by SRB assay; assay type: cell-based
[6] = tested on: Mycobacterium tuberculosis; experiment: Antimycobacterium activity against Mycobacterium tuberculosis H37Ra at dormant stage at 10 ug/ml; assay type: functional
[7] = biological target: T1, Dihydrofolate reductase (Homo sapiens, UniProt P00374); experiment: Inhibition of human DHFR using 45 uM DHF as substrate by spectrophotometry
T1 sequence (P00374 whole entry): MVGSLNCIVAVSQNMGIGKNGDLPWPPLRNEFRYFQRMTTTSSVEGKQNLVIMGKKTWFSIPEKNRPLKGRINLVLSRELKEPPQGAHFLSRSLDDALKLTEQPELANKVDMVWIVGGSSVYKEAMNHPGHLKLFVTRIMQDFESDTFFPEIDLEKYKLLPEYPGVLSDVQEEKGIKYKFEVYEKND

[8] = biological target: T2, Dihydrofolate reductase (Mycobacterium tuberculosis, UniProt P9WNX1); experiment: Inhibition of recombinant Mycobacterium tuberculosis DHFR using 45 uM DHF as substrate by spectrophotometry
T2 sequence (P9WNX1 whole entry): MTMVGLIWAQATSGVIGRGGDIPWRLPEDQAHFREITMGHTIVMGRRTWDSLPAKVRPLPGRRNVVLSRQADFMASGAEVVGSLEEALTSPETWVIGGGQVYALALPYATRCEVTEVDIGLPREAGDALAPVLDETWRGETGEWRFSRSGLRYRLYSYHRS

| SMILES | MIC [1] [µM] | MIC [2] [µM] | MIC [3] [µM] | Activity [4] | Activity [5] | inhibition at 10 µg/mL [6] [%] | IC50 [7] [µM] | IC50 [8] [µM] |
| --- | --- | --- | --- | --- | --- | --- | --- | --- |
| Cc1ccc(Oc2ccc(-c3nc(N)nc(N)n3)cc2)cc1 | > 418 | 426 (≈ 125 µg/mL) | 426 (≈ 125 µg/mL) | Non-toxic | Non-toxic | – | – | – |
| Nc1nc(N)nc(-c2ccc(Oc3ccccc3)cc2)n1 | 110 (≈ 30.6 µg/mL) | 448 (≈ 125 µg/mL) | 448 (≈ 125 µg/mL) | Non-toxic | Non-toxic | 19.4 | – | – |
| Nc1nc(N)nc(-c2ccc(Sc3ccccc3)cc2)n1 | 212 (≈ 62.5 µg/mL) | 423 (≈ 125 µg/mL) | 423 (≈ 125 µg/mL) | Non-toxic | Non-toxic | 11.7 | – | – |
| Nc1nc(N)nc(-c2ccc(Oc3ccc(F)cc3)cc2)n1 | > 420 | 420 (≈ 125 µg/mL) | 420 (≈ 125 µg/mL) | Non-toxic | Non-toxic | 4.98 | – | – |
| Nc1nc(N)nc(-c2ccc(Oc3ccc(Cl)cc3)cc2)n1 | > 398 | 398 (≈ 125 µg/mL) | 398 (≈ 125 µg/mL) | Non-toxic | Non-toxic | 81.1 | – | – |
| Cc1cccc(C)c1Oc1ccc(-c2nc(N)nc(N)n2)cc1 | 20.3 (≈ 6.25 µg/mL) | 407 (≈ 125 µg/mL) | 407 (≈ 125 µg/mL) | Non-toxic | Non-toxic | 96.9 | – | – |
| Cc1cccc(Oc2ccc(-c3nc(N)nc(N)n3)cc2)c1C | 0.325 (≈ 0.0999 µg/mL) | 407 (≈ 125 µg/mL) | 407 (≈ 125 µg/mL) | Non-toxic | Non-toxic | 16.1 | 42 | 25.9 |
| COc1ccc(Oc2ccc(-c3nc(N)nc(N)n3)cc2)cc1 | > 396 | 404 (≈ 125 µg/mL) | 404 (≈ 125 µg/mL) | Non-toxic | Non-toxic | 37.5 | – | – |
| Cc1cc(Oc2ccc(-c3nc(N)nc(N)n3)cc2)ccc1Cl | > 381 | 381 (≈ 125 µg/mL) | 381 (≈ 125 µg/mL) | Non-toxic | Non-toxic | 7.27 | – | – |
| Cc1cccc(Oc2ccc(-c3nc(N)nc(N)n3)cc2)c1 | > 447 | 426 (≈ 125 µg/mL) | 426 (≈ 125 µg/mL) | Non-toxic | Non-toxic | 15 | – | – |
| Cc1cc(Oc2ccc(-c3nc(N)nc(N)n3)cc2)cc(C)c1Cl | > 369 | 366 (≈ 125 µg/mL) | 366 (≈ 125 µg/mL) | Non-toxic | Non-toxic | 14.5 | – | – |
| Cc1cc(Cl)ccc1Oc1ccc(-c2nc(N)nc(N)n2)cc1 | 1.96 (≈ 0.642 µg/mL) | 381 (≈ 125 µg/mL) | 381 (≈ 125 µg/mL) | Non-toxic | Non-toxic | 87.2 | – | – |
| CC(C)(C)c1ccc(Oc2ccc(-c3nc(N)nc(N)n3)cc2)cc1 | > 380 | 373 (≈ 125 µg/mL) | 373 (≈ 125 µg/mL) | Non-toxic | Non-toxic | 42.2 | – | – |
| Nc1nc(N)nc(-c2ccc(Oc3ccc(Br)cc3)cc2)n1 | 3.56 (≈ 1.28 µg/mL) | 349 (≈ 125 µg/mL) | 349 (≈ 125 µg/mL) | Non-toxic | Non-toxic | 83 | – | – |
| Nc1nc(N)nc(-c2ccc(Oc3ccc(Cl)cc3Cl)cc2)n1 | 3.59 (≈ 1.25 µg/mL) | 359 (≈ 125 µg/mL) | 359 (≈ 125 µg/mL) | Non-toxic | Non-toxic | 93.6 | – | – |
| Nc1nc(N)nc(-c2ccc(Oc3ccccc3Cl)cc2)n1 | 20.7 (≈ 6.5 µg/mL) | 398 (≈ 125 µg/mL) | 398 (≈ 125 µg/mL) | Non-toxic | Non-toxic | 27.6 | – | – |
| NNC(=O)c1ccncc1 [ISONIAZID] | 0.73 (≈ 0.1 µg/mL) | – | – | – | – | – | – | – |
| CN(Cc1cnc2nc(N)nc(N)c2n1)c1ccc(C(=O)N[C@@H](CCC(=O)O)C(=O)O)cc1 [METHOTREXATE] | 0.968 (≈ 0.44 µg/mL) | – | – | – | – | – | – | – |
| COc1cc(Cc2cnc(N)nc2N)cc(OC)c1OC [TRIMETHOPRIM] | 28.9 (≈ 8.4 µg/mL) | – | – | – | – | – | – | – |
